Results: patent publication EP1785723A1, “Micro calorimetric analysis of mammalian cell susceptibility to agents that affect cell growth, metabolism and immune response, and use of micro calorimetric analysis in a transplantation test” (Stratos Bio Ltd., priority 2005, dated 2007)

What was measured:
respiring E.coli = experiment: Flow microcalorimetry, p-t curves of respiring cells in glucose buffer; format: cell-based; details: for Effect on power: neomycin alone added to respiring E.coli, Fig. 16; for Effect on p-t curve / power output: Polymyxin B alone, concentration not stated, Fig. 15
Procedure: For a typical calorimetric incubation the medium was passed through the calorimetric vessel at the same flow rate and temperature as those used in the experiment to establish a steady baseline deflection. The following operations then took place to a strict timetable. The liquid nitrogen stored ampoule was thawed at 38°C for 3 min and then stirred for 20 sec on a whirlimixer. The bacterial suspension (0.5-1.5ml) volumes was inoculated into the medium (100ml) two minutes after completion of thawing. A Gilson automatic pipette was used for inoculation. The calorimeter inlet flow-line was placed in the incubation medium 30 seconds after inoculation. The flowing incubation medium reached the calorimetric vessel two min after inlet flow-line insertion. At this time the recording of the p-t curves was started. Eight min after inoculation the outflow from the calorimeter was returned to the fermenter (after the "baseline" medium had run to waste but before the inoculated medium ran to waste) thus making a closed system. Aeration was started as soon as the inlet tube was inserted in the fermenter. Microbiological purity of the culture was checked by plating out a sample of the culture at the end of each incubation on nutrient agar (lab M).
The output of calorimetric experiments is a plot of power (energy evolution per unit of time) as a function of time. The unit of power (p) is the Watt (W) and the unit of time is the hour (h). In some experiments seconds (s) were used as time unit.
E.coli was suspended in 10% DMSO prior to freezing and the viable counts were for batch 1: pre-freeze: 4.0 ± 0.6_ x 10^10 cfu/ml and post -freeze 2.0 ± 0.44 x 10^10 cfu/ml and for batch 2: pre-freeze: 3.45 ± 0.58 x 10^10 cfu/ml and post-freeze 2.93 ± 0.43 x 10^10 cfu/ml. The freezing rate for both batches was 20°C/min the survival rate was 50% for batch 1 and 85% for batch 2. These differences may have been due to batch 1 being kept for 24h at 4°C before being frozen.
The respiration experiments were carried out in glucose buffer at different pH. The respiration curves obtained from batch 1 (inoculum 2 x 10^10 cfu/ml) and batch 2 Inoculum 3.2 x 10^10 cfu/ml) were essentially similar and a mean was used as a reference). The respiration experiments were carried out at pH 7 for polymyxin and Znbacitracin and at pH 8 for neomycin. No differences in p-t control curves could be observed at pH 7 or pH 8.
The p-t curves rose and reached a plateau as has been observed for respiration of yeasts and some 20 min later fell to a lower plateau value. Prior incubation of the cells in the buffered glucose for periods up to 20 min before presentation to the calorimeter could reduce or entirely remove this effect.

Bacillus Pumilus = experiment: Flow microcalorimetry, p-t curves of growing culture with antibiotics and mixtures; format: cell-based
Text: To the vertical face of the vessel close to its base, equidistantly spaced around the circumference, ports were fitted for an oxygen electrode and for sampling/inoculation. The fermenter was closed with a flat flanged glass lid which had five ports accommodating respectively, gas inlet tube, gas exhaust (via air condenser), inlet and outlet flow-lines to and from the calorimeter. The fermenter and lid was sealed with a p.t.f.e. gasket and clamped with a metal clip. The fermenter was placed on a magnetic stirring unit in a water jacket which allowed circulation of the thermostatically controlled water at 30°C or 37°C. The fermenter which contained a Teflon coated magnetic stirring bar, was sterilised by autoclaving.
For a typical calorimetric incubation the medium was passed through the calorimetric vessel at the same flow rate and temperature as those used in the experiment to establish a steady baseline deflection. The following operations then took place to a strict timetable. The liquid nitrogen stored ampoule was thawed at 38°C for 3 min and then stirred for 20 sec on a whirlimixer. The bacterial suspension (0.5-1.5ml) volumes was inoculated into the medium (100ml) two minutes after completion of thawing. A Gilson automatic pipette was used for inoculation. The calorimeter inlet flow-line was placed in the incubation medium 30 seconds after inoculation. […]

[1] = POLB 6.3 ug/ml, respiration, pH 7

Compound | Linear dose-response range (respiring E.coli; NEO, respiration, pH 8) [µg/mL] | Effect on heat output (respiring E.coli; all concentrations of Neomycin, respiring E.coli) | Effect on power (respiring E.coli; listed as Neomycin) | Effect on power (respiring E.coli; listed as neomycin) | Range of linear relationship between dose and the reciprocal of increase in response from the control curve (respiring E.coli; neomycin, respiring E.coli) [µg/mL] | Effect on power output in growth studies (Bacillus Pumilus; concentration not given) | Observed effect on p-t curves (respiring E.coli; [1]) | Time of return of p-t curve to baseline (respiring E.coli; [1]) [h] | Effect on p-t curve / power output (respiring E.coli; listed as Polymyxin B) | Effect on p-t curve / power output (respiring E.coli; listed as polymyxin B) | Time within which growth was inhibited completely (Bacillus Pumilus; 20ug/ml POLB, bacterial concentration printed '0?' as % of p-t curve, pH 8.00)
NC[C@@H]1O[C@H](O[C@H]2[C@@H](O)[C@H](O[C@@H]3[C@@H](O)[C@H](N)C[C@H](N)[C@H]3O[C@H]3O[C@H](CN)[C@@H](O)[C@H](O)[C@H]3N)O[C@@H]2CO)[C@H](N)[C@@H](O)[C@@H]1O [NEO, neomycin] | 10 to 100 | caused an increased heat output | caused an increase in power output | caused an increase in power | 20 to 100 | increase in power output | – | – | – | – | –
Polymyxin B [POLB] | – | – | – | – | – | – | Reduced height of p-t curve initially | ≤ 1 | reduced the initial peak height and thereafter the p-t curve returned to baseline | severe reduction in power output followed by a return to baseline | Within 9 hours growth was inhibited completely
